Patent US20210292347A1, “DIHETEROCYCLIC TRIAZINONE NUCLEOSIDE ANALOGS AND THEIR USE FOR MEDICATION” (priority 2020, published 2021)

Tested on: mice sarcoma S180
Assay: Growth inhibition of S180 sarcoma in mice
Format: in vivo, Kunming healthy mice
Settings: for in-vivo anti-tumor efficacy, statistical significance (in words): S180 sarcoma in mice, doses and routes of Table 3
[1] = Mus musculus, S-180, mice, ip, read-out: Inhibition rate (%) S180 sarcoma
[2] = Mus musculus, S-180, mice, iv, read-out: Inhibition rate (%) S180 sarcoma
[3] = Mus musculus, S-180, mice, ip, 400 mg/kg, read-out: Inhibition rate (%) S180 sarcoma

`CCCc1nn(CC(N)=O)c2c(=O)n(C3OC(CO)C(O)C3O)nnc12` (stereo not drawn) [Example 49, 2-(3-(3,4-dihydroxy-5-(hydroxymethyl)tetrahydrofuran-2-yl)-4-oxo-7-propyl-3H-pyrazolo [4,3-d][1,2,3]triazin-5(4H)-yl)acetamide] was tested, and the inhibition in vivo at 100 mg/kg [1] was under 40% and the “in-vivo anti-tumor efficacy, statistical significance (in words)” value was “statistically significant”.

For `NC(=O)Cn1nc(N)c2nnn(C3OC(CO)C(O)C3O)c(=O)c21` (stereo not drawn) [Example 50, 2-(7-amino-3-(3,4-dihydroxy-5-(hydroxymethyl)tetrahydrofuran-2-yl)-4-oxo-3H-pyrazolo[4,3-d][1,2,3]triazin-5(4H)-yl)acetamide], the inhibition in vivo at 15 mg/kg [2] was under 40% and the “in-vivo anti-tumor efficacy, statistical significance (in words)” value was “statistically significant”.

With `NC(=O)Cn1nc([N+](=O)[O-])c2nnn(C3OC(CO)C(O)C3O)c(=O)c21` (stereo not drawn) [Example 54, 2-(3-(3,4-dihydroxy-5-(hydroxymethyl)tetrahydrofuran-2-yl)-7-nitro-4-oxo-3H-pyrazolo [4,3-d][1,2,3]triazin-5(4H)-yl)acetamide] the inhibition in vivo at 150 mg/kg (Mus musculus, S-180, mice, ip, 150 mg/kg, read-out: Inhibition rate (%) S180 sarcoma) was under 40% and the “in-vivo anti-tumor efficacy, statistical significance (in words)” value was “statistically significant”.

`CCCc1nn(C(N)=O)c2c(=O)n(C3OC(CO)C(O)C3O)nnc12` (stereo not drawn) [Example 55, 3-(3,4-dihydroxy-5-(hydroxymethyl)tetrahydrofuran-2-yl)-4-oxo-7-propyl-3H-pyrazolo [4,3-d][1,2,3]triazine-5(4H)-carboxamide] was tested, and the inhibition in vivo at 100 mg/kg [1] was under 40% and the “in-vivo anti-tumor efficacy, statistical significance (in words)” value was “statistically significant”.

With `NC(=O)n1nc(N)c2nnn(C3OC(CO)C(O)C3O)c(=O)c21` (stereo not drawn) [Example 56, 7-amino-3-(3,4-dihydroxy-5-(hydroxymethyl)tetrahydrofuran-2-yl)-4-oxo-3H-pyrazolo[4,3-d][1,2,3]triazine-5(4H)-carboxamide] the inhibition in vivo at 100 mg/kg [1] was under 40% and the “in-vivo anti-tumor efficacy, statistical significance (in words)” value was “statistically significant”.

For `N#Cc1nn(C(N)=O)c2c(=O)n(C3OC(CO)C(O)C3O)nnc12` (stereo not drawn) [Example 58, 7-cyano-3-(3,4-dihydroxy-5-(hydroxymethyl)tetrahydrofuran-2-yl)-4-oxo-3H-pyrazolo[4,3-d][1,2,3]triazine-5(4H)-carboxamide], the inhibition in vivo at 100 mg/kg [1] was under 40% and the “in-vivo anti-tumor efficacy, statistical significance (in words)” value was “statistically significant”.

`NC(=O)n1nc(N2CCCCC2)c2nnn(C3OC(CO)C(O)C3O)c(=O)c21` (stereo not drawn) [Example 59, 3-(3,4-dihydroxy-5-(hydroxymethyl)tetrahydrofuran-2-yl)-4-oxo-7-(piperidin-1-yl)-3H-pyrazolo[4,3-d][1,2,3]triazine-5(4H)-carboxamide] gave an inhibition in vivo at 50 mg/kg (Mus musculus, S-180, mice, iv, 50 mg/kg, read-out: Inhibition rate (%) S180 sarcoma) of under 20%.

For `NC(=O)n1nc([N+](=O)[O-])c2nnn(C3OC(CO)C(O)C3O)c(=O)c21` (stereo not drawn) [Example 60, 3-(3,4-dihydroxy-5-(hydroxymethyl)tetrahydrofuran-2-yl)-7-nitro-4-oxo-3H-pyrazolo[4,3-d][1,2,3]triazine-5(4H)-carboxamide], the inhibition in vivo at 15 mg/kg [2] was under 40% and the “in-vivo anti-tumor efficacy, statistical significance (in words)” value was “statistically significant”.

With `COc1ccc(C(=O)Nc2nn(C(N)=O)c3c(=O)n(C4OC(CO)C(O)C4O)nnc23)cc1` (stereo not drawn) [Example 61, 3-(3,4-dihydroxy-5-(hydroxymethyl)tetrahydrofuran-2-yl)-7-(4-methoxybenzamido)-4-oxo-3H-pyrazolo[4,3-d][1,2,3]triazine-5(4H)-carboxamide] the inhibition in vivo at 12.5 mg/kg (Mus musculus, S-180, mice, iv, 12.5 mg/kg, read-out: Inhibition rate (%) S180 sarcoma) was under 20%.

In the case of `CCCc1nn(C(=N)N)c2c(=O)n(C3OC(CO)C(O)C3O)nnc12` (stereo not drawn) [Example 68, 3-(3,4-dihydroxy-5-(hydroxymethyl)tetrahydrofuran-2-yl)-4-oxo-7-propyl-3H-pyrazolo [4,3-d][1,2,3]triazine-5(4H)-carboximidamide], the inhibition in vivo at 20 mg/kg [2] is reported as under 40% and the “in-vivo anti-tumor efficacy, statistical significance (in words)” value is reported as “statistically significant”.

`N#Cc1nn(C(=N)N)c2c(=O)n(C3OC(CO)C(O)C3O)nnc12` (stereo not drawn) [Example 70, 7-cyano-3-(3,4-dihydroxy-5-(hydroxymethyl)tetrahydrofuran-2-yl)-4-oxo-3H-pyrazolo[4,3-d][1,2,3]triazine-5(4H)-carboximidamide] was tested, and the inhibition in vivo at 100 mg/kg [1] was under 40% and the “in-vivo anti-tumor efficacy, statistical significance (in words)” value was “statistically significant”.

`N=C(N)n1nc([N+](=O)[O-])c2nnn(C3OC(CO)C(O)C3O)c(=O)c21` (stereo not drawn) [Example 72, 3-(3,4-dihydroxy-5-(hydroxymethyl)tetrahydrofuran-2-yl)-7-nitro-4-oxo-3H-pyrazolo[4,3-d][1,2,3]triazine-5(4H)-carboximidamide] was tested, and the inhibition in vivo at 25 mg/kg (Mus musculus, S-180, mice, iv, 25 mg/kg, read-out: Inhibition rate (%) S180 sarcoma) was under 40% and the “in-vivo anti-tumor efficacy, statistical significance (in words)” value was “statistically significant”.

`CCOC(=O)c1nn(C(N)=S)c2c(=O)n(C3OC(CO)C(O)C3O)nnc12` (stereo not drawn) [Example 73, ethyl 5-carbamothioyl-3-(3,4-dihydroxy-5-(hydroxymethyl)tetrahydrofuran-2-yl)-4-oxo-4,5-dihydro-3H-pyrazolo[4,3-d][1,2,3]triazine-7-carboxylate] was tested, and the inhibition in vivo at 200 mg/kg [1] was under 40% and the “in-vivo anti-tumor efficacy, statistical significance (in words)” value was “statistically significant”.

In the case of `CCCc1nn(C(N)=S)c2c(=O)n(C3OC(CO)C(O)C3O)nnc12` (stereo not drawn) [Example 74, 3-(3,4-dihydroxy-5-(hydroxymethyl)tetrahydrofuran-2-yl)-4-oxo-7-propyl-3H-pyrazolo[4,3-d][1,2,3]triazine-5(4H)-carbothioamide], the inhibition in vivo at 200 mg/kg [1] is reported as under 40% and the “in-vivo anti-tumor efficacy, statistical significance (in words)” value is reported as “statistically significant”.

`CN(C)CCC(=O)Nc1nn(C(N)=S)c2c(=O)n(C3OC(CO)C(O)C3O)nnc12` (stereo not drawn) [Example 76, N-(5-carbamothioyl-3-(3,4-dihydroxy-5-(hydroxymethyl)tetrahydrofuran-2-yl)-4-oxo-4,5-dihydro-3H-pyrazolo[4,3-d][1,2,3]triazin-7-yl)-3-(dimethylamino) propanamide] was tested, and the “in-vivo anti-tumor efficacy, statistical significance (in words)” value was “statistically significant” and the “Inhibition rate (%) S180 sarcoma” value (mice, ip, 400 mg/kg) was “++ (++ represent of Inhibition rate % <40)”.

In the case of `N#Cc1nn(C(N)=S)c2c(=O)n(C3OC(CO)C(O)C3O)nnc12` (stereo not drawn) [Example 77, 7-cyano-3-(3,4-dihydroxy-5-(hydroxymethyl)tetrahydrofuran-2-yl)-4-oxo-3H-pyrazolo[4,3-d][1,2,3]triazine-5(4H)-carbothioamide], the inhibition in vivo at 100 mg/kg [1] is reported as under 40% and the “in-vivo anti-tumor efficacy, statistical significance (in words)” value is reported as “statistically significant”.

`CCCc1nn(O)c2c(=O)n(C3CCC(CO)O3)nnc12` (stereo not drawn) [Example 79, 5-hydroxy-3-(5-(hydroxymethyl)tetrahydrofuran-2-yl)-7-propyl-3H-pyrazolo[4,3-d][1,2,3]triazin-4(5H)-one] gave an inhibition in vivo at 300 mg/kg (Mus musculus, S-180, mice, ip, 300 mg/kg, read-out: Inhibition rate (%) S180 sarcoma) of under 20%.

`CCCc1nn(C)c2c(=O)n(C3CCC(CO)O3)nnc12` (stereo not drawn) [Example 80, 3-(5-(hydroxymethyl)tetrahydrofuran-2-yl)-5-methyl-7-propyl-3H-pyrazolo[4,3-d][1,2,3]triazin-4(5H)-one] showed an inhibition in vivo at 200 mg/kg [1] of under 20%.

In the case of `CCOP(=O)(OCC)C(Nc1nn(CO)c2c(=O)n(C3CCC(CO)O3)nnc12)C(=O)O` (stereo not drawn) [Example 81, 2-(diethoxyphosphoryl)-2-((5-(hydroxymethyl)-3-(5-(hydroxymethyl)tetrahydrofuran-2-yl)-4-oxo-4,5-dihydro-3H-pyrazolo[4,3-d][1,2,3]triazin-7-yl)amino)acetic acid], the inhibition in vivo at 100 mg/kg [1] is reported as under 40% and the “in-vivo anti-tumor efficacy, statistical significance (in words)” value is reported as “statistically significant”.

Molecule `CCOP(=O)(OCC)C(C(=O)O)n1nc(N)c2nnn(C3CCC(CO)O3)c(=O)c21` (stereo not drawn) [Example 83, 2-(7-amino-3-(5-(hydroxymethyl)tetrahydrofuran-2-yl)-4-oxo-3H-pyrazolo[4,3-d][1,2,3]triazin-5(4H)-yl)-2-(diethoxyphosphoryl)acetic acid] has an inhibition in vivo at 20 mg/kg [2] of under 20%.

Work on `CCCc1nn(C(=N)N)c2c(=O)n(C3CCC(CO)O3)nnc12` (stereo not drawn) [Example 85, 3-(5-(hydroxymethyl)tetrahydrofuran-2-yl)-4-oxo-7-propyl-3H-pyrazolo[4,3-d][1,2,3]triazine-5(4H)-carboximidamide] yielded an inhibition in vivo at 400 mg/kg [3] of under 20%.

Molecule `CCCc1nn(C(N)=S)c2c(=O)n(C3CCC(CO)O3)nnc12` (stereo not drawn) [Example 86, 3-(5-(hydroxymethyl)tetrahydrofuran-2-yl)-4-oxo-7-propyl-3H-pyrazolo[4,3-d][1,2,3]triazine-5(4H)-carbothioamide] has an inhibition in vivo at 200 mg/kg [1] of under 20%.

For `CCCc1nn(O)c2c(=O)n(C3CSC(CO)O3)nnc12` (stereo not drawn) [Example 88, 5-hydroxy-3-(2-(hydroxymethyl)-1,3-oxathiolan-5-yl)-7-propyl-3H-pyrazolo[4,3-d][1,2,3]triazin-4(5H)-one], the inhibition in vivo at 400 mg/kg [3] was under 40% and the “in-vivo anti-tumor efficacy, statistical significance (in words)” value was “statistically significant”.

Molecule `CCOP(=O)(OCC)C(Nc1nn(C)c2c(=O)n(C3CSC(CO)O3)nnc12)C(=O)O` (stereo not drawn) [Example 90, 2-(diethoxyphosphoryl)-2-((3-(2-(hydroxymethyl)-1,3-oxathiolan-5-yl)-5-methyl-4-oxo-4,5-dihydro-3H-pyrazolo[4,3-d][1,2,3]triazin-7-yl)amino)acetic acid] has an inhibition in vivo at 30 mg/kg (Mus musculus, S-180, mice, iv, 30 mg/kg, read-out: Inhibition rate (%) S180 sarcoma) of under 20%.

In the case of `CCCc1nn(C)c2c(=O)n(C3CSC(CO)O3)nnc12` (stereo not drawn) [Example 91, 3-(2-(hydroxymethyl)-1,3-oxathiolan-5-yl)-5-methyl-7-propyl-3H-pyrazolo[4,3-d][1,2,3]triazin-4(5H)-one], the inhibition in vivo at 200 mg/kg [1] is reported as under 40% and the “in-vivo anti-tumor efficacy, statistical significance (in words)” value is reported as “statistically significant”.
